Test results: a melting point compilation (Tetko et al.; mined from patent text by program, amines drawn as free bases though some values may be those of a salt)
Residues, ends and D or L forms follow the SMILES beside them. *: point of attachment. Tos = Cc1ccc(S(=O)(=O)*)cc1; OtBu = CC(C)(C)O*

Row | Compound | melting point [°C]
1 | COc1cc(OC)cc(N2CCN(C(=S)Nc3cc4ccccc4nc3C)CC2)c1 | 211 to 212
2 | COc1cc2c(cc1O)CC(C)(C)N(Cc1cc(OC)c(OC)c(OC)c1)C2 | 143 to 147
3 | CC(C(N)=O)c1ccc2c(c1)C(=O)Cc1c(Cl)cccc1S2 (stereo not given) | 195 to 196
4 | Cc1ccc(S(=O)(=O)N2CCC[C@H]2C(=O)N[C@@H](CC(=O)OC(C)(C)C)C(=O)O)cc1 (Tos-Pro-Asp(OtBu)-OH) | 153 to 155
5 | COP(=O)(c1ccccc1)c1ccc2c(c1)C(NC(=NC#N)Nc1ccc(Cl)cc1)C(O)C(C)(C)O2 (stereo not given) | 150
6 | CS(=O)(=O)Nc1ccc(CC(NC(=O)C(c2ccccc2)c2ccccc2)c2ccccc2)cc1 (stereo not given) | 200 to 202
7 | O=C1COc2cc(OCCCCl)ccc2N1 | 95
8 | CONC(=O)C(C)c1ccc2cc(OCc3ccc4ccccc4n3)ccc2c1 (stereo not given) | 162 to 164
9 | Nc1cccc(C=CC(=O)N2CCc3c([nH]c4ccccc34)C2c2ccc3c(c2)OCO3)c1 (stereo not given) | 139 to 141
10 | CCN(CC)c1ccc(/C=C/c2cc(/C=C/c3ccc4cc[nH]c4c3)[nH]n2)c(OCCN2CCOCC2)c1 | 96 to 99
11 | COc1cc2c3c(cccc3c1OC)C(=O)N(O)C2=O | 226 to 228
12 | COc1ccc(Cc2cc(=O)[nH]c3nc(OCc4ccccn4)ncc23)cc1Cl | 130 to 131
13 | O=C(CSCc1ccc2c(c1)OCO2)NO | 127 to 128
14 | O=C1C(c2ccccc2)=C(c2ccccc2)C(=O)N1CCc1ccc(F)cc1 | 153 to 154
15 | COc1ccc(CN2C(=O)C3(COc4cc(O)c(C#N)cc43)c3ccccc32)cc1 (stereo not given) | 112 to 114
16 | O=C(c1ccc(Cl)cc1Cl)N1CCc2cc(S(=O)(=O)N3CCN(c4cccc(Cl)c4)CC3)ccc21 | 184
17 | c1ccc(-c2cc3cnccc3[nH]2)cc1 | 276 to 278
18 | COC(=O)c1cc(OC)cc(C(=O)OC)c1 | 108 to 109
19 | COc1ccc(C(C)N(C)CCCOc2ccc(S(=O)(=O)c3ncc(-c4ccccc4)n3-c3ccccc3)cc2)cc1OC (stereo not given) | 162
20 | O=C(CC1CCCCC1=O)c1ccc(Cl)c(Cl)c1 (stereo not given) | 78 to 79
21 | O=C1c2cccc(NC(=S)Nc3ncccn3)c2C2CCCCN12 (stereo not given) | 212
22 | O=C1c2ccccc2C(O)N1c1ccc2ncccc2n1 (stereo not given) | 208
23 | NC(=O)CCCOc1ccc(C23CC4CC(CC(C4)C2)C3)cc1 | 176 to 177
24 | CC(=O)OCC(C)(C)C(=O)O | 56 to 59

Row | Compound | melting point [°C]
25 | CC(C)(C)OC(=O)N1CC=C(c2ccc(Br)cc2)CC1 | 68 to 70
26 | NC(=O)CC(O)COC(c1ccccc1)(c1ccccc1)c1ccccc1 (stereo not given) | 59 to 60
27 | Cc1cc(N)nc(CCc2nc3cc(-c4ccc(S(=O)(=O)N5CCCC5)cc4)cnc3[nH]2)c1 | 171
28 | CC(=O)Cc1ccc(-n2ccnc2)cc1 | 71.5 to 72.5
29 | C=Cc1cc(C(C)NC(=O)Nc2ccc(C(C)(C)C)cc2)ccc1NS(=O)(=O)C=C (stereo not given) | 60 to 62
30 | O=S1(=O)NCN(C2CC2)c2c(Cl)cccc21 | 142 to 143
31 | CS(=O)(=O)c1ccc(-c2cc(CO[N+](=O)[O-])nn2C2CCCCCCC2)cc1 | 110 to 111
32 | COc1ccc(Cn2c(C)cc3cn[nH]c(=O)c32)cc1 | 212 to 213
33 | CC(C)c1cc(-c2ccc(F)cc2)cc(-c2ccc(F)cc2)c1C=O | 110 to 112
34 | Cc1c(C)c(N2CCN(c3ncccn3)CC2)c(C)c2c1OC(C)(C)C2 | 145 to 147
35 | COc1ccc2sc(=O)n(C(C)=O)c2c1 | 112 to 113
36 | COc1cccc(N(C)c2nc(N)nc3[nH]c4ccccc4c23)c1 | 245 to 246
37 | CCOC(=O)CCCNc1cc(OC)c(OC)cc1C(C)=O | 74 to 76
38 | Cc1nccn1-c1nc(-c2ccc(Cl)cc2)c(CCCC2=NCCO2)o1 | 88 to 89
39 | COc1cc(S(C)(=O)=O)ccc1-c1nc2cc3c(cc2[nH]1)NC(=O)C3(C)C | 235 to 237
40 | O=S(=O)(CCl)c1ccc(O)cc1 | 110
41 | COc1cc(C(C)=O)ccc1OCCN1CCC(c2noc3cc(Cl)ccc23)CC1 | 133 to 135
42 | CCC1C(c2ccc(OC(Cl)C(=O)O)cc2Cl)=CC(=O)CC1C (stereo not given) | 183
43 | C=CCSc1cc(-c2ccc(C(F)(F)F)cc2)ccc1C#N | 89 to 90
44 | COCC(=O)C1CCC2C3CCC4CC(O)CCC4(C)C3CCC12C (stereo not given) | 163 to 164
45 | Clc1ccc(-c2cc(C3CCN(CCc4ccccc4)CC3)no2)cc1 | 118 to 120
46 | CCCc1ccccc1OCCCOc1ccc2c(=O)cc(C#N)oc2c1 | 85 to 86
47 | Cc1ccc(S(=O)(=O)n2ccnc2C(O)(c2ccc(F)cc2)c2ccc(F)cc2)cc1 | 149 to 151
48 | CCC(CC)n1nc(-c2ccc(OC)cc2OC)c2cccc(C(F)(F)F)c21 | 115 to 116

Row | Compound | melting point [°C]
49 | CC(C)Nc1nc2cc(F)c(Cl)cc2n1[C@@H]1O[C@H](C)[C@@H](O)[C@H]1O | 97 to 99
50 | CN(C(=O)N1CCN(C[C@@]2(C)Cn3cc([N+](=O)[O-])nc3O2)CC1)c1ccc(C(F)(F)F)cc1 | 100 to 102
51 | CCCCc1nc2cc(C(=O)O)ccc2n1Cc1ccccc1Cl | 238 to 239
52 | CC(=O)Nc1ccc(NCCSC#N)c([N+](=O)[O-])c1 | 168
53 | O=C(Nc1ccccc1)OCC1(COC(=O)Nc2ccccc2)CS(=O)(=O)c2ccccc2C1=O | 72 to 78
54 | COc1cc2c(cc1-c1ncco1)-c1c(-c3cccs3)c3c(n1CC2)C(=O)N(C(C)(C)C)CCC3 | 230 to 231
55 | OC1CCCc2nc3cc(Cl)ccc3c(NCc3ccccc3)c21 (stereo not given) | 163
56 | CCOC(=O)CCCCOc1ccc(N2CCN(c3ccncc3)CC2)cc1 | 79 to 82
57 | COc1ccc(C=Cc2ccncc2)cc1 | 128 to 130
58 | O=C(O)c1ccc(N2C(=O)c3cccc([N+](=O)[O-])c3C2=O)cc1 | > 300
59 | O=C(Nc1nccs1)c1nc(-c2cccc3ccccc23)[nH]c1-c1ccc(F)cc1 | 218 to 220
60 | COc1cccc2c(=O)[nH]c(C)nc12 | 261 to 262
61 | CCOC(=O)c1cn2c3ccc(Br)cc3c3cc(OC)cc(c1=O)c32 | 95.6 to 97.6
62 | O=C(O)c1ccc(CNCc2cc(Br)ccc2OCc2ccccc2)cc1 | 209
63 | O=c1c(-c2ccccc2)c(Cn2cnc3c(Cl)ncnc32)oc2ccc(Br)cc12 | 234 to 236
64 | COc1cc(NS(=O)(=O)c2ccc(Cl)cc2)c(C(=O)O)cc1OC | 168 to 169
65 | CC1(C)CC(=O)C2=C(C1)NC1=C(C(=O)CC(C)(C)C1)C2c1cccc(Oc2ncccn2)c1 | 220 to 221
66 | O=C(O)Cc1ccc(C(=O)O)cc1 | 235 to 237
67 | COC(=O)[C@H](Cc1ccccc1)Oc1c(C)cc(-c2c3ccccc3c(Br)c3sc(C)c(C)c23)cc1C | 134 to 139
68 | CCOC(=O)c1cc(CC)sc1Nc1ccc([N+](=O)[O-])cc1[N+](=O)[O-] | 146 to 148
69 | CCOC(=O)c1noc(-c2ccc(Cl)cc2)n1 | 88 to 89
70 | CCOC(=O)C1=C(N2CCCC2)N=C(C)C(C(=O)OCC)C1c1cccc2ccccc12 (stereo not given) | 121
